pEC50: −log10 of the molar value. “And” between values parts separate entries of the source, which are not always exact repeats. Equal entries are not always repeated. Where two headings read alike, the source gives them in different places.
Legend:
[1] = tested on: thr^34 -phosphorylated DARPP-32; test: phospho-DARPP-32 immunoblot in mouse neostriatal slices; format: cell-based; conditions: for increase in the level of phosphorylated DARPP-32 over the already high basal levels: Ca^2+ -free/EGTA medium; for increase in the level of phosphorylated DARPP-32: vs untreated slices
Procedure: (§1) Preparation and incubation of striatal slices. Male C57BL/6 mice (5-8 weeks old) were sacrificed by decapitation. The brains of the decapitated mice were rapidly removed and placed in ice-cold, oxygenated Krebs-HCO3 -buffer (124 mM NaCl, 4 mM KCl, 26 mM NaHCO3, 1.5 mM CaCl2, 1.25 mM KH2 PO4, 1.5 mM MgSO4 and 10 mM D-glucose, pH 7.4). Coronal slices (350 μm) were prepared using a vibratome. Striatum and nucleus accumbens were dissected from the slices in ice-cold Krebs-HCO3 - buffer. Each slice was placed in a polypropylene incubation tube with 2 ml of fresh Krebs-HCO3 - buffer containing adenosine deaminase (10 μg/ml). The slices were preincubated at 30° C. under constant oxygenation with 95 % O2 /5 % CO2 for 60 minutes. The buffer was replaced with fresh Krebs-HCO3 -buffer after 30 minutes of preincubation. In some experiments, slices were incubated in Ca^2+ -free/EGTA medium (124 mM NaCl, 4 mM KCl, 26 mM NaHCO3, 1.25 mM KH2 PO4, 3.0 mM MgSO4, 10 mM D-glucose and I mM EGTA, pH 7.4) for 20 minutes after 60 minutes of preincubation in Krebs-HCO3 - buffer. Slices were treated with drugs as specified in each experiment.
(§2) Immunoblotting. Frozen tissue samples were sonicated in boiling 1% SDS and boiled for an additional 10 minutes. Small aliquots of the homogenate were retained for protein determination by the BCA protein assay method (Pierce) using bovine serum albumin as a standard. […] The membranes were immunoblotted using a monoclonal antibody (mAb-23; 1:750 dilution) [Snyder et al., (1992)], which is a phosphorylation state-specific antibody raised against a DARPP-32 peptide containing phospho-thr^34, the site phosphorylated by cAMP-dependent protein kinase. A monoclonal antibody (C24-5a; 1:7500 dilution) generated against DARPP-32 (Hemmings and Greengard, 1986), which is not phosphorylation state-specific, was used to estimate the total amount of DARPP-32 in samples.
(§3) Data were analyzed by Student's t -test with significance defined as p<0.05.

[2] = tested on: thr^34 -phosphorylated DARPP-32; test: phospho-DARPP-32 immunoblot in nucleus accumbens slices; format: cell-based, mouse
Procedure: as §1, §2, §3

DARPP-32 phosphorylation = DARPP-32 phosphorylation in rat neostriatal slices (FIG. 9); format: cell-based; conditions: forskolin 10 μM plus FK506 at various concentrations
Procedure: FIG. 9. FK506 increases the level of DARPP-32 phosphorylation in neostriatal slices. Rat neostriatal slices were incubated in the absence (control) or presence of forskolin (10 μM) alone; or forskolin and FK506 using the various concentrations shown.

[3] = prepulse inhibition (PPI) of the startle reflex in mice; format: in vivo
Source text: Chambers that are used to assess startle are housed in a sound-attenuated room with a 60 dB(A) ambient noise level. Such chambers consist of a Plexiglass cylinder 8.2 cm in diameter resting on a 12.5×25.5 cm Plexiglass frame within a ventilated enclosure. Acoustic noise bursts are presented via a speaker mounted 24 cm above the animal. A piezoelectric accelerometer mounted below the Plexiglass frame detects and transduces motion within the cylinder. The delivery of acoustic stimuli is controlled by a microcomputer. Startle amplitude is defined as the average of 100 readings. Background noise and all acoustic stimuli are delivered through a speaker (frequency response between 0.5 and 16 Khz) in a chamber. The test session consists of giving: (i) a startle stimulus alone (a 118 dB [A] 40 ms broad band burst); or (ii) no stimulation; or (iii) a startle stimulus preceded 100 ms earlier by a prepulse (a 70 dB [A] 20 ms broad band burst). The amount of PPI is expressed as the percentage decrease in the startle response caused by the presentation of the prepulse. The amount of PPI is calculated using the following equation: [(startle amplitude caused by pulse alone minus startle amplitude caused by pulse preceded by prepulse)/(startle amplitude caused by pulse alone)]×100.

[4] = Begley et al., 1990; cited from earlier work
[5] = treatment with a D1 antagonist, Karlsson et al., 1995; cited from earlier work

## NC1=N[C@H](O)[C@H]2[C@H]3O[C@]4(O)O[C@@H]([C@@H](O)[C@@]2(N1)[C@@H]4O)[C@]3(O)CO [TTX, tetrodotoxin]
[1]
  effect on the SKF82526-stimulated level of phosphorylated DARPP-32: increased
  effect on the basal level of phosphorylated DARPP-32: increased
  effect on the effect of quinpirole on DARPP-32 phosphorylation: failed to reduce
  level of phospho-DARPP-32, TTX (+): 1.000

## CCCN1CCC[C@@H]2Cc3n[nH]cc3C[C@H]21 [quinpirole]
[1]
  effect on the basal level of phosphorylated DARPP-32: decreased

## CN[C@H](CC(=O)O)C(=O)O [NMDA]
[1]
  effect on the SKF82526-stimulated level of phosphorylated DARPP-32: antagonized
[1]; discussion of Table 2 data
  decrease in SKF 82526-induced phosphorylation of DARPP-32: 100%

## CN1CCc2cc(Cl)c(O)cc2[C@@H](c2ccccc2)C1 [SCH23390]
[1]
  effect on the SKF82526-induced DARPP-32 phosphorylation (D1 antagonist): abolished

## Oc1ccc(C2CNCCc3c2cc(O)c(O)c3Cl)cc1 (centres unmarked) [SKF82526]
[1]
  level of phospho-DARPP-32, TTX (+): 5.492 ± 0.780
  level of phospho-DARPP-32, TTX (-): 3.282 ± 0.575
  increase in the level of phosphorylated DARPP-32 over the already high basal levels: 1.55±0.12 fold
[1]; Mus musculus, dose-dependent increase, read-out: half-maximal effect on DARPP-32 phosphorylation
  pEC50: ~7.00
[1]; SKF82526 1 μM alone
  increase in the level of phosphorylated DARPP-32: 5.37±0.99 fold and 9.36±2.06 fold
[1]; Table 1A, SKF82526 1 μM for 5 min, normalized to control
  level of phospho-DARPP-32, Cyclosporin A (-), 5 min: 7.14 ± 0.97
[1]; Table 1A, SKF82526 1 μM for 30 min, normalized to control
  level of phospho-DARPP-32, Cyclosporin A (-), 30 min: 3.07 ± 0.66
[1]; Table 1A, cyclosporin A 5 μM preincubation 60 min, SKF82526 1 μM for 5 min, normalized to control
  level of phospho-DARPP-32, Cyclosporin A (+), 5 min: 31.6 ± 2.8
[1]; Table 1A, cyclosporin A 5 μM preincubation 60 min, SKF82526 1 μM for 30 min, normalized to control
  level of phospho-DARPP-32, Cyclosporin A (+), 30 min: 28.0 ± 3.1
[1]; Table 1C, cyclosporin A 5 μM 60 min, quinpirole 1 μM 5 min preincubation, SKF82526 1 μM 5 min, normalized to control
  level of phospho-DARPP-32, Cyclosporin A (+): 21.1 ± 2.3
[1]; Table 1C, quinpirole 1 μM 5 min preincubation, SKF82526 1 μM 5 min, normalized to control
  level of phospho-DARPP-32, Cyclosporin A (-): 10.61 ± 2.28
[1]; Table 2, MK801 100 μM from 0 min, NMDA 100 μM or quinpirole 1 μM at 10 min, SKF82526 1 μM at 15 min of 20 min, normalized to SKF82526 alone
  level of phospho-DARPP-32, MK801 (+): 1.115 ± 0.078
[1]; Table 2, NMDA 100 μM or quinpirole 1 μM at 10 min, SKF82526 1 μM at 15 min of 20 min, normalized to SKF82526 alone
  level of phospho-DARPP-32, MK801 (-): 1.000
[2]; SKF82526 1 μM
  increase in the level of phosphorylated DARPP-32: about 7 fold

## C/C=C(/C)C(=O)O[C@H]1C(C)=C2[C@H]([C@@H]1OC(=O)CCCCCCC)[C@@](C)(OC(C)=O)C[C@H](OC(=O)CCC)[C@@]1(O)[C@H]2OC(=O)[C@@]1(C)O [thapsigargin]
[1]; thapsigargin 5 μM added 5 min before SKF82526 1 μM for 5 minutes
  reduction of the level of phosphorylated DARPP-32 seen with SKF82526: 46.9±7.7%

## C=CC[C@@H]1/C=C(\C)C[C@H](C)C[C@H](OC)[C@H]2O[C@@](O)(C(=O)C(=O)N3CCCC[C@H]3C(=O)O[C@H](/C(C)=C/[C@@H]3CC[C@@H](O)[C@H](OC)C3)[C@H](C)[C@@H](O)CC1=O)[C@H](C)C[C@@H]2OC [FK506]
DARPP-32 phosphorylation
  effect on the level of DARPP-32 phosphorylation: increases DARPP-32 phosphorylation in a dose-dependent manner
[3]; D2 agonist and FK506 concurrently, FK506 intravenously 1 to 1000 nM
  effect on the reduction of PPI mediated by quinpirole: blocks the reduction of PPI mediated by quinpirole
[3]; FK506 alone
  effect on the degree of PPI, FK506 alone: can increase the degree of PPI
[4]
  crossing of the blood-brain barrier: effectively crosses the blood-brain barrier

## CN1CCc2cc(Cl)c(O)cc2[C@H]2c3ccccc3CC[C@@H]21 [SCH39166]
[5]
  effect on the symptoms of schizophrenia: does not improve but actually worsens the symptoms of schizophrenia

## NCCc1ccc(O)c(O)c1 [dopamine]
[1]; dopamine 100 μM plus nomifensine 10 μM
  increase in the level of phosphorylated DARPP-32: 6.64±1.36 fold

## C[C@]12N[C@H](Cc3ccccc31)c1ccccc12 [MK801]
[1]
  effect on the D2 receptor (quinpirole) decrease of DARPP-32 phosphorylation: not blocked
  effect on the basal level of phosphorylated DARPP-32: increased
  level of phospho-DARPP-32, MK801 (+): 0.247 ± 0.044
[1]; MK801 100 μM, NMDA 100 μM
  effect on the NMDA antagonism of the SKF82526-induced increase of phosphorylated DARPP-32: abolished

## C=C[C@@]1(C)CC(=O)[C@]2(O)[C@@]3(C)[C@@H](O)CCC(C)(C)[C@@H]3[C@H](O)[C@H](OC(C)=O)[C@@]2(C)O1 [forskolin]
[1]
  increase in the level of phosphorylated DARPP-32 over the already high basal levels: 2.04±0.22 fold
[1]; forskolin 10 μM, 8-bromo-cAMP 1 mM
  increase in the level of phosphorylated DARPP-32 after 5 minutes: 20 fold

## CCN1CCC[C@H]1CNC(=O)c1c(O)c(Cl)cc(Cl)c1OC [raclopride]
[1]
  effect on the basal level of phosphorylated DARPP-32: slightly increased
[1]; raclopride 1 μM
  effect on the ability of quinpirole to decrease the SKF82526-stimulated level of phosphorylated DARPP-32: dramatically reduced
[1]; raclopride 1 μM, quinpirole (100 μM)
  effect on the ability of quinpirole to decrease the basal level of phosphorylated DARPP-32: blocked
[2]; raclopride 1 μM
  effect on the quinpirole-induced decrease in SKF82526-stimulated DARPP-32 phosphorylation: abolished
  effect on the quinpirole-induced decrease in basal DARPP-32 phosphorylation: abolished
[2]; raclopride alone 1 μM
  effect on the basal level of phosphorylated DARPP-32: small increase

From patent publication US6013621A, “Method of treating psychosis and/or hyperactivity” (The Rockfeller University, priority 1997, dated 2000)
